Data from US10597375B2, “Halogen-substituted heterocyclic compound” (UBE INDUSTRIES, LTD., priority 2012, dated 2020).

Experiments:
[1] = test system: A2058 human melanoma cells; experiment: Cell migration test (LPA-induced, Chemo-Tx); assay type: cell-based; settings: LPA 100 nM, 3 hours, read-out: IC50: concentration of the test compound which inhibits the cell migration activity of LPA by 50%
Experimental: The cell migration test was carried out using Chemo-Tx (registered trademark) (116-8, Neuro Probe). A2058 human melanoma cells (obtained from European Collection of Cell Culture) were cultured in a serum-free EMEM medium for 24 hours, and then re-suspended in a 0.1% BSA-containing DMEM medium to obtain a cell suspension. The test compound dissolved in DMSO in various concentration was each added to the cell suspension, and the suspension was cultured at 37° C. for 15 minutes (the final DMSO concentration of 0.5%). LPA dissolved in a 0.1% BSA-containing DMEM medium (the final concentration of 100 nM) was added to Chemo-Tx 96 well plate, and a Chemo-Tx filter which had been coated with 0.001% Fibronectin on the both surfaces was put on the plate. The suspension of cultured cells (25,000 cells) was added onto the upper surface of the filter and further cultured at 37° C. for 3 hours, and the cells on the upper surface of the filter were removed. After the filter was removed and dried, the cells which had migrated to the lower surface of the filter were stained using Diff-Quik stain (16920, Sysmex). The absorbance of the filter (570 nm) was measured and the concentration of the test compound which inhibits the cell migration activity of LPA by 50%, (1050) was determined by non-linear regression analysis using EXSAS (version 7.6.0, Arm Systex).

[2] = test system: LPA-induced histamine release; experiment: LPA-induced histamine release test in mouse; assay type: in vivo; settings: male CD1 mice; oral dose of 10 mg/kg; LPA 300 μg/mouse via tail vein 4 hours after administration; blood 2 minutes after LPA; read-out: efficacy rate (rate of individuals which showed the inhibition rate of 80% or more of plasma histamine)
Experimental: LPA-Induced Histamine Release Test in Mouse
LPA-induced histamine release test in mouse was carried out according to a method by Swaney et al. (The Journal of Pharmacology and Experimental Therapeutics, 336 (2011), pages 693-700). The test compound was suspended in 0.5% methylcellulose solution (133-14255, Wako), and orally administered to male CD1 mice (body weight: 30 to 40 g, supplied by Charles River Laboratories Japan) at a dose of 10 mL/kg. 4 hours after administration, LPA (857130P, Avanti) dissolved in a 0.1% BSA-containing PBS was administered via the tail vein (300 μg/mouse). Immediately, the mouse was anesthetized with isoflurane, and blood was collected via a vein 2 minutes after the administration of LPA. The blood was put into a test tube containing EDTA, and centrifuged at 4° C., 2,000×g, for 10 minutes to obtain the plasma.
The histamine concentration in the plasma was measured by EIA kit (62HTMPEB, Cisbio Bioassays).

SMILES | IC50 [1] | responders at 10 mg/kg [2]
CC(OC(=O)Nc1cc(F)sc1-c1ccc(-c2ccc(C3(C(=O)O)CC3)cc2)cc1)c1ccsc1 (racemic) [I-639, (RS)-1-{4′-[5-Fluoro-3-({[1-(thiophen-3-yl)ethoxy]carbonyl}amino)thiophen-2-yl]-[1,1′-biphenyl]-4-yl}cyclopropanecarboxylic acid] | ≤ 200 nM | ≥ 50%
Cc1cscc1C(C)OC(=O)Nc1cc(F)sc1-c1ccc(-c2ccc(C3(C(=O)O)CC3)cc2)cc1 (racemic) [I-649, (RS)-1-{4′-[5-Fluoro-3-({[1-(4-methylthiophen-3-yl)ethoxy]carbonyl}amino)thiophen-2-yl]-[1,1′-biphenyl]-4-yl}cyclopropanecarboxylic acid] | ≤ 200 nM | ≥ 50%
CC(OC(=O)Nc1cc(F)sc1-c1ccc(-c2ccc(C3(C(=O)O)CC3)cc2)cc1)c1cscc1Cl (racemic) [I-657, (RS)-1-{4′-[3-({[1-(4-Chlorothiophen-3-yl)ethoxy]carbonyl}amino)-5-fluorothiophen-2-yl]-[1,1′-biphenyl]-4-yl}cyclopropanecarboxylic acid] | ≤ 200 nM | ≥ 50%
COc1cc(-c2sc(F)cc2NC(=O)OC(C)c2ccsc2)ccc1-c1ccc(C2(C(=O)O)CC2)cc1 (racemic) [I-811, (RS)-1-{4′-[5-Fluoro-3-({[1-(thiophen-3-yl)ethoxy]carbonyl}amino)thiophen-2-yl]-2′-methoxy-[1,1′-biphenyl]-4-yl}cyclopropanecarboxylic acid] | ≤ 200 nM | ≥ 50%
C[C@@H](OC(=O)Nc1cc(Cl)sc1-c1ccc(-c2ccc(C3(C(=O)O)CC3)cc2)cc1)c1ccc(F)cc1F [I-64, (R)-1-{4′-[5-Chloro-3-({[1-(2,4-difluorophenyl)ethoxy]carbonyl}amino)thiophen-2-yl]-[1,1′-biphenyl]-4-yl}cyclopropanecarboxylic acid] | ≤ 200 nM | ≥ 50%
C[C@@H](OC(=O)Nc1cc(Cl)sc1-c1ccc(-c2ccc(C3(C(=O)O)CC3)cc2)cc1)c1cc(F)ccc1F [I-68, (R)-1-{4′-[5-Chloro-3-({[1-(2,5-difluorophenyl)ethoxy]carbonyl}amino)thiophen-2-yl]-[1,1′-biphenyl]-4-yl}cyclopropanecarboxylic acid] | ≤ 200 nM | ≥ 50%
Cc1ccccc1[C@@H](C)OC(=O)Nc1cc(F)sc1-c1ccc(-c2ccc(C3(C(=O)O)CC3)cc2)cc1 [I-136, (R)-1-{4′-[5-Fluoro-3-({[1-(o-tolyl)ethoxy]carbonyl}amino)thiophen-2-yl]-[1,1′-biphenyl]-4-yl}cyclopropanecarboxylic acid] | ≤ 200 nM | ≥ 50%
C[C@@H](OC(=O)Nc1cc(Cl)sc1-c1ccc(-c2ccc(C3(C(=O)O)CC3)cc2)nc1)c1ccccc1 [I-196, (R)-1-{4-[5(5-Chloro-3-{[(1-phenylethoxy)carbonyl]amino}thiophen-2-yl)pyridine-2-yl]phenyl}cyclopropanecarboxylic acid] | ≤ 200 nM | ≥ 50%
COc1cc(-c2sc(Cl)cc2NC(=O)O[C@H](C)c2ccccc2)ccc1-c1ccc(C2(C(=O)O)CC2)cc1 [I-350, (R)-1-[4′-(5-Chloro-3-{[(1-phenylethoxy)carbonyl]amino}thiophen-2-yl)-2′-methoxy-[1,1′-biphenyl]-4-yl]cyclopropanecarboxylic acid] | ≤ 200 nM | ≥ 50%
COc1cc(-c2sc(Cl)cc2NC(=O)O[C@H](C)c2ccccc2F)ccc1-c1ccc(C2(C(=O)O)CC2)cc1 [I-354, (R)-1-{4′-[5-Chloro-3-({[1-(2-fluorophenyl)ethoxy]carbonyl}amino)thiophen-2-yl]-2′-methoxy-[1,1′-biphenyl]-4-yl}cyclopropanecarboxylic acid] | ≤ 200 nM | ≥ 50%
COc1cc(-c2sc(Cl)cc2NC(=O)O[C@H](C)c2cccc(F)c2)ccc1-c1ccc(C2(C(=O)O)CC2)cc1 [I-358, (R)-1-{4′-[5-Chloro-3-({[1-(3-fluorophenyl)ethoxy]carbonyl}amino)thiophen-2-yl]-2′-methoxy-[1,1′-biphenyl]-4-yl}cyclopropanecarboxylic acid] | ≤ 200 nM | ≥ 50%
COc1cc(-c2sc(Cl)cc2NC(=O)O[C@H](C)c2ccc(F)cc2)ccc1-c1ccc(C2(C(=O)O)CC2)cc1 [I-362, (R)-1-{4′-[5-Chloro-3-({[1-(4-fluorophenyl)ethoxy]carbonyl}amino)thiophen-2-yl]-2′-methoxy-[1,1′-biphenyl]-4-yl}cyclopropanecarboxylic acid] | ≤ 200 nM | ≥ 50%
COc1cc(-c2sc(Cl)cc2NC(=O)O[C@H](C)c2ccccc2Cl)ccc1-c1ccc(C2(C(=O)O)CC2)cc1 [I-366, (R)-1-{4′-[5-Chloro-3-({[1-(2-chlorophenyl)ethoxy]carbonyl}amino)thiophen-2-yl]-2′-methoxy-[1,1′-biphenyl]-4-yl}cyclopropanecarboxylic acid] | ≤ 200 nM | ≥ 50%
COc1cc(-c2sc(Cl)cc2NC(=O)O[C@H](C)c2ccc(Cl)cc2)ccc1-c1ccc(C2(C(=O)O)CC2)cc1 [I-370, (R)-1-{4′-[5-Chloro-3-({[1-(4-chlorophenyl)ethoxy]carbonyl}amino)thiophen-2-yl]-2′-methoxy-[1,1′-biphenyl]-4-yl}cyclopropanecarboxylic acid] | ≤ 200 nM | ≥ 50%
COc1cc(-c2sc(Cl)cc2NC(=O)O[C@H](C)c2ccccc2C)ccc1-c1ccc(C2(C(=O)O)CC2)cc1 [I-374, (R)-1-{4′-[5-Chloro-3-({[1-(o-tolyl)ethoxy]carbonyl}amino)thiophen-2-yl]-2′-methoxy-[1,1′-biphenyl]-4-yl}cyclopropanecarboxylic acid] | ≤ 200 nM | ≥ 50%
COc1cc(-c2sc(Cl)cc2NC(=O)O[C@H](C)c2ccc(F)cc2F)ccc1-c1ccc(C2(C(=O)O)CC2)cc1 [I-378, (R)-1-{4′-[5-Chloro-3-({[1-(2,4-difluorophenyl)ethoxy]carbonyl}amino)thiophen-2-yl]-2′-methoxy-[1,1′-biphenyl]-4-yl}cyclopropanecarboxylic acid] | ≤ 200 nM | ≥ 50%
COc1cc(-c2sc(Cl)cc2NC(=O)O[C@H](C)c2cc(F)ccc2F)ccc1-c1ccc(C2(C(=O)O)CC2)cc1 [I-388, (R)-1-{4′-[5-Chloro-3-({[1-(2,5-difluorophenyl)ethoxy]carbonyl}amino)thiophen-2-yl]-2′-methoxy-[1,1′-biphenyl]-4-yl}cyclopropanecarboxylic acid] | ≤ 200 nM | ≥ 50%
COc1cc(-c2sc(F)cc2NC(=O)O[C@H](C)c2ccccc2)ccc1-c1ccc(C2(C(=O)O)CC2)cc1 [I-420] | ≤ 200 nM | ≥ 50%
COc1cc(-c2sc(F)cc2NC(=O)O[C@H](C)c2ccccc2F)ccc1-c1ccc(C2(C(=O)O)CC2)cc1 [I-424, (R)-1-{4′-[5-Fluoro-3-({[1-(2-fluorophenyl)ethoxy]carbonyl}amino)thiophen-2-yl]-2′-methoxy-[1,1′-biphenyl]-4-yl}cyclopropanecarboxylic acid] | ≤ 200 nM | ≥ 50%
COc1cc(-c2sc(F)cc2NC(=O)O[C@H](C)c2cccc(F)c2)ccc1-c1ccc(C2(C(=O)O)CC2)cc1 [I-428, (R)-1-{4′-[5-Fluoro-3-({[1-(3-fluorophenyl)ethoxy]carbonyl}amino)thiophen-2-yl]-2′-methoxy-[1,1′-biphenyl]-4-yl}cyclopropanecarboxylic acid] | ≤ 200 nM | ≥ 50%
COc1cc(-c2sc(F)cc2NC(=O)O[C@H](C)c2ccc(F)cc2)ccc1-c1ccc(C2(C(=O)O)CC2)cc1 [I-432, (R)-1-{4′-[5-Fluoro-3-({[1-(4-fluorophenyl)ethoxy]carbonyl}amino)thiophen-2-yl]-2′-methoxy-[1,1′-biphenyl]-4-yl}cyclopropanecarboxylic acid] | ≤ 200 nM | ≥ 50%
COc1cc(-c2sc(F)cc2NC(=O)O[C@H](C)c2cccs2)ccc1-c1ccc(C2(C(=O)O)CC2)cc1 [I-840, (R)-1-{4′-[5-Fluoro-3-({[1-(thiophen-2-yl)ethoxy]carbonyl}amino)thiophen-2-yl]-2′-methoxy-[1,1′-biphenyl]-4-yl}cyclopropanecarboxylic acid] | ≤ 200 nM | 
